Data taken from US11155668B2, “Contact-killing, QAC functionalized thermoplastic polyurethane for catheter applications” (THE UNIVERSITY OF AKRON, priority 2017, dated 2021).

How the values were obtained:
[1] = system: E. coli; assay: Contact-killing assay (adapted from ISO 22196) on allyl-TPU blade-coated samples modified with Qx-SH; format: cell-based, Escherichia coli (ATCC 25922); conditions: for Mean CFU/Sample Recovered, E. coli: n = 2
Procedure: (§1) To functionalize the allyl-TPU blade-coated samples with Qx-SH reagents, thiol-ene reactions were performed using the same procedure described for rhodamine-SH. Briefly, blade-coated films of allyl-TPU (250 μm thick, 2.0 cm diameter, ca. 110 mg, 20 μmol allyl) were submerged in 2 mL of an Ar purged (30 min) aqueous solution containing Qx-SH (10.0 mM) and LAP (5.0 mM), and allowed to pre-soak for 30 min under Ar. UV-treated samples were irradiated for 30 min (λ=365 nm, I=1.2 mW·cm^−2) while phys. ads. samples were kept in the absence of UV light for 30 min to control for any antimicrobial activity that is contributed by non-covalently attached QAC. Following treatment, the dye/photoinitiator solutions were drawn up and discarded, and the samples were rinsed with 5 mL of DI water (3×) then submerged in 5 mL of DI water. The samples were further rinsed with 10% EtOH (3×) and soaked in 10% EtOH for 15 min (3×), rinsing with 10% EtOH in between each soak.
(§2) For antimicrobial testing, blade-coated samples and catheter tubing of allyl-TPU were sterilized by EtO sterilization using an Anprolene benchtop sterilizer (Anderson Products, Inc., Haw River, N.C.) following the manufacturer's protocol to deliver approximately 0.5 cc·L^−1 of EtO gas over a 12 h sterilization cycle at 35% humidity and room temperature, followed by a 48 h purge under vacuum. The bacterial strains used in this study included Staphylococcus epidermidis (ATCC 12228), Staphylococcus aureus (25923), Escherichia coli (ATCC 25922), Pseudomonas aeruginosa (ATCC 27853), Enterococcus faecalis (ATCC 29212), and methicillin-resistant Staphylococcus aureus (MRSA) (ATCC BAA-41).
The contact-killing assay was performed on physically adsorbed (phys. ads.), and UV-treated blade-coated samples modified with a series of Qx-SH reagents using a method adapted from ISO 22196. See, International Organization for Standardization. Measurement of antibacterial activity on plastics and other non porous surfaces (ISO 22196:2011), the disclosure of which is incorporated herein by reference in its entirety. Briefly, the samples were inoculated with same day cultures of select bacteria (e.g. E. coli, S. epidermidis) in dilute nutrient media (0.2% tryptic soy broth (TSB) in 1× phosphate buffered saline (PBS)) at approximately 150 colony-forming units (CFU)·mm^−2. Generally, 35 uL of 8.5×10^5 CFU/mL cultures were dispersed across the surface of the sample using sterile polypropylene cover films (area=198 mm^2). […] Following incubation, surviving cells were recovered from the samples using vigorous agitation (i.e. vortexing for 20 s in PBS). Surviving cells were enumerated via 10-fold series dilution and plating 100 μL onto tryptic soy agar (TSA), incubating overnight and then plate counting CFU. The mean CFU recovered per sample (CFU/sample) were calculated by accounting for dilutions. Internal controls samples of polypropylene and chlorhexidine treated with polypropylene were included in the assay.

[2] = system: S. epidermidis; assay: as above; format: cell-based, Staphylococcus epidermidis (ATCC 12228); conditions: n = 2
Procedure: as §1, §2
(§3) The contact-killing assay was performed on physically adsorbed (phys. ads.), and UV-treated blade-coated samples modified with a series of Qx-SH reagents using a method adapted from ISO 22196. See, International Organization for Standardization. Measurement of antibacterial activity on plastics and other non porous surfaces (ISO 22196:2011), the disclosure of which is incorporated herein by reference in its entirety. Briefly, the samples were inoculated with same day cultures of select bacteria (e.g. E. coli, S. epidermidis) in dilute nutrient media (0.2% tryptic soy broth (TSB) in 1× phosphate buffered saline (PBS)) at approximately 150 colony-forming units (CFU)·mm^−2. Generally, 35 uL of 8.5×10^5 CFU/mL cultures were dispersed across the surface of the sample using sterile polypropylene cover films (area=198 mm^2). Inoculated samples were incubated in a humidified room air incubator (36° C., ca. 80% rel. humidity) for 20 h. Following incubation, surviving cells were recovered from the samples using vigorous agitation (i.e. vortexing for 20 s in PBS). Surviving cells were enumerated via 10-fold series dilution and plating 100 μL onto tryptic soy agar (TSA), incubating overnight and then plate counting CFU. The mean CFU recovered per sample (CFU/sample) were calculated by accounting for dilutions. Internal controls samples of polypropylene and chlorhexidine treated with polypropylene were included in the assay.

[3] = system: MRSA; assay: as above; format: cell-based; conditions: n = 1
Procedure: as §1, §2, §3

[4] = system: E. faecalis; assay: as above; format: cell-based, Enterococcus faecalis (ATCC 29212); conditions: n = 1
Procedure: as §1, §2, §3

[5] = system: P. aeruginosa; assay: as above; format: cell-based, Pseudomonas aeruginosa (ATCC 27853); conditions: for Mean CFU/Sample Recovered, P. aeruginosa: n = 1
Procedure: as §1, §2, §3

[6] = system: E. coli; assay: Antimicrobial testing using ISO22196 protocol on compression molded samples; format: cell-based; conditions: surface functionalized (covalently attached QAC) sample; FIG. 7B
[7] = positive control (chlorhexidine treated polypropylene)
[8] = UV-treated samples, 24 h contact-killing assay
[9] = UV-treated samples, negative control polypropylene 2.04 (±0.06) × 10^6
[10] = phys. ads. samples, negative control polypropylene 2.04 (±0.06) × 10^6
[11] = UV-treated samples, negative control polypropylene 0.93 (±0.03) × 10^5
[12] = phys. ads. samples, negative control polypropylene 0.93 (±0.03) × 10^5
[13] = UV-treated samples, negative control polypropylene 1.51 × 10^5
[14] = phys. ads. samples, negative control polypropylene 1.51 × 10^5
[15] = UV-treated samples, negative control polypropylene 1.70 × 10^5
[16] = phys. ads. samples, negative control polypropylene 1.70 × 10^5
[17] = UV-treated samples, negative control polypropylene 7.94 × 10^6
[18] = phys. ads. samples, negative control polypropylene 7.94 × 10^6

SMILES | Mean CFU/Sample Recovered, E. coli [1, 7] [CFU/Sample] | Mean CFU/Sample Recovered, S.epidermidis [2, 7] [CFU/Sample] | Mean CFU/Sample Recovered, MRSA [3, 7] [CFU/Sample] | Mean CFU/Sample Recovered, E. faecalis [4, 7] [CFU/Sample] | Mean CFU/Sample Recovered, P. aeruginosa [5, 7] [CFU/Sample] | log reduction in E. coli compared to the negative control [1, 8] [log] | reduction in E. coli compared to the negative control [1, 8] [%] | Mean CFU/Sample Recovered, E. coli [1, 9] | Mean CFU/Sample Recovered, E. coli [1, 10] | Mean CFU/Sample Recovered, S.epidermidis [2, 11] [CFU/Sample] | Mean CFU/Sample Recovered, S.epidermidis [2, 12] [CFU/Sample] | Mean CFU/Sample Recovered, MRSA [3, 13] | Mean CFU/Sample Recovered, MRSA [3, 14] [CFU/Sample] | Mean CFU/Sample Recovered, E. faecalis [4, 15] [CFU/Sample] | Mean CFU/Sample Recovered, E. faecalis [4, 16] [CFU/Sample] | reduction of P. aeruginosa ([5]; UV-treated samples) | Mean CFU/Sample Recovered, P. aeruginosa [5, 17] | Mean CFU/Sample Recovered, P. aeruginosa [5, 18] | log reduction, activity against E. coli [6] [log]
[H]/N=C(\N/C(=N/[H])NCCCCCCNC(=N)NC(=N)Nc1ccc(Cl)cc1)Nc1ccc(Cl)cc1 [Chlorhexidine, reference compound] | 0.00 ± 0.00 | 0.00 ± 0.00 | 0.00 | 0.00 | 0.00 |  |  |  |  |  |  |  |  |  |  |  |  |  | 
CCCCCCCCCCCC[N+](C)(C)CCCCCCCCOC(=O)CCS.[Cl-] [Q12-SH] |  |  |  |  |  | 6 | 99.9999 | 0.00 ± 0.00 CFU/Sample | 1.17 (±0.41) × 10^3 CFU/Sample | 0.00 ± 0.00 | 0.00 ± 0.00 | 0.00 CFU/Sample | 0.00 | 0.00 | 0.00 | complete reduction | 0.00 CFU/Sample | 7.24 × 10^5 CFU/Sample | 
CCCCCCCCCCCCCC[N+](C)(C)CCCCCCCCOC(=O)CCS.[Cl-] [Q14-SH] |  |  |  |  |  |  |  | 6.61 (±0.01) × 10^5 CFU/Sample | 6.03 (±0.03) × 10^5 CFU/Sample | 0.00 ± 0.00 | 0.00 ± 0.00 | 1.00 × 10^2 CFU/Sample | 0.00 | 0.00 | 0.00 |  | 5.25 × 10^6 CFU/Sample | 4.79 × 10^6 CFU/Sample | 
CCCCCCCCCCCCCC[N+](C)(C)CCCCCCCCOC(=O)CCSSCCC(=O)OCCCCCCCC[N+](C)(C)CCCCCCCCCCCCCC.[Cl-].[Cl-] [8-Q14-S-S] |  |  |  |  |  |  |  |  |  |  |  |  |  |  |  |  |  |  | 6
